18 compounds from patent publication US9399646B2 (Genentech, Inc., priority 2010, dated 2016) can be followed below.

The structures appear in SMILES notation.

One test concerns MCF-7 cells. The test can be described thus: Breast cancer cell viability assay (CellTiter-Glo, 5 days). Type of test: cell-based. The settings on record: 5 days' compound exposure; for IC50: Homo sapiens, MCF7, 120 h. The method in brief:
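Eleven-point semilog compound series, final 0.3-0.000003 μM, added to overnight-adhered MCF-7 cells (320/well; RPMI, 10% FBS, 20 mM HEPES) for 5 days. Viability read by CellTiter-Glo luminescence, background from medium without cells subtracted, expressed relative to untreated cells.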
A general note: In ATP-based viability assays light output follows the ATP content of the culture.

Another test deals with T1, ER-α in MCF-7 cells (Homo sapiens, UniProt P03372).
T1 sequence (P03372 1-595): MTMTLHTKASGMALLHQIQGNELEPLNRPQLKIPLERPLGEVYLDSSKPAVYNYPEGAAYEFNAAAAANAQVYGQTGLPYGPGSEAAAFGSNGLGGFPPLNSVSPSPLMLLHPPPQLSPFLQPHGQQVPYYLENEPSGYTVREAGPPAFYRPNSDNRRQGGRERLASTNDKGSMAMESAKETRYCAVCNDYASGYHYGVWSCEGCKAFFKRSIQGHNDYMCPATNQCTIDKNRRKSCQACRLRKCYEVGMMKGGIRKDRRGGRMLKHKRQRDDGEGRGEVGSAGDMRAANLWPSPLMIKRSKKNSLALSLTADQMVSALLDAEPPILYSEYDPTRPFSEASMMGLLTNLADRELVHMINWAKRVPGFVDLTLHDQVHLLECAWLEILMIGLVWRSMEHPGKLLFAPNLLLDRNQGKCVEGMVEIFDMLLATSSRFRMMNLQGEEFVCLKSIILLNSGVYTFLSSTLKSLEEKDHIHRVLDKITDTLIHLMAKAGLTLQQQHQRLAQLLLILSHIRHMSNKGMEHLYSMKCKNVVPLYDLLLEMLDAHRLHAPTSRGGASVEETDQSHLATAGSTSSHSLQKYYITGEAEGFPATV
The test can be described thus: Breast cancer cell ER-α in cell western assay (SP1). Type of test: cell-based. The settings on record: 4 or 24 hr post compound addition; for Emax: MCF7, SP1 antibody, read-out: ER-α In Cell Western Assay (SP1) Max Response; for DC50: SP1 antibody, read-out: ER-α In Cell Western Assay (SP1) IC50. The arrangement: endogenous in cells; host or cells: MCF-7. The procedure, abridged:
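Percent remaining ER: SP1 immunofluorescence normalized to DRAQ5 nuclear stain, compared with untreated controls. Treatment lasted 4 or 24 hr across 0.3–0.000003 μM final in MCF-7.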

As a reminder, the IC50 is the concentration that gives 50% inhibition. With `CC/C(=C(/c1ccc(/C=C/C(=O)NS(C)(=O)=O)cc1)c1ccc2[nH]ncc2c1)c1ccccc1` [Compound 423, (E)-3-(4-((E)-1-(1H-Indazol-5-yl)-2-phenylbut-1-en-1-yl)phenyl)-N-(methylsulfonyl)acrylamide], in the test with MCF-7 cells, the “MCF7 Viability Assay Max Response” value is on record as “++ (++ = a single % value ≧ 40%)” and the IC50 was ≤ 100 nM. Besides, at ER-α in MCF-7 cells, the Emax is ≥ 40% and the DC50 was ≤ 100 nM.
With `CC/C(=C(/c1ccc(/C=C/C(=O)NS(C)(=O)=O)cc1)c1ccc2c(cnn2C)c1)c1ccc(F)cc1Cl` [Compound 424, (E)-3-(4-((E)-2-(2-Chloro-4-fluorophenyl)-1-(1-methyl-1H-indazol-5-yl)but-1-en-1-yl)phenyl)-N-(methylsulfonyl)acrylamide], in the test on MCF-7 cells, the “MCF7 Viability Assay Max Response” value is listed as “++ (++ = a single % value ≧ 40%)” and the IC50 was > 100 nM. On ER-α in MCF-7 cells, the Emax is ≥ 40% and the DC50 is ≤ 100 nM.
For `CC/C(=C(/c1ccc(/C=C/C(=O)Nc2nn[nH]n2)cc1)c1ccc2[nH]ncc2c1)c1ccc(F)cc1Cl` [Compound 425, (E)-3-(4-((E)-2-(2-Chloro-4-fluorophenyl)-1-(1H-indazol-5-yl)but-1-en-1-yl)phenyl)-N-(2H-tetrazol-5-yl)acrylamide], in that order: “++ (++ = a single % value ≧ 40%)”, ≤ 100 nM, ≥ 40% and ≤ 100 nM.
Consider `CC/C(=C(/c1ccc(/C=C/C(N)=O)cc1)c1ccc2scnc2c1)c1ccccc1` [Compound 426, (E)-3-(4-((E)-1-(Benzo[d]thiazol-5-yl)-2-phenylbut-1-en-1-yl)phenyl)acrylamide], for which, in the test on MCF-7 cells, the “MCF7 Viability Assay Max Response” value was “++ (++ = a single % value ≧ 40%)” and the 50% inhibitory concentration (IC50) is ≤ 100 nM. At ER-α in MCF-7 cells, the Emax was ≥ 40% and the DC50 was ≤ 100 nM.
In the case of `CC/C(=C(/c1ccc(/C=C/C(=O)NC)cc1)c1ccc2scnc2c1)c1ccccc1` [Compound 427, (E)-3-(4-((E)-1-(Benzo[d]thiazol-5-yl)-2-phenylbut-1-en-1-yl)phenyl)-N-methylacrylamide], in the test on MCF-7 cells, the “MCF7 Viability Assay Max Response” value is on record as “++ (++ = a single % value ≧ 40%)” and the IC50 is ≤ 100 nM. Besides, at ER-α in MCF-7 cells, the Emax was ≥ 40% and the DC50 was ≤ 100 nM.
`CC/C(=C(/c1ccc(/C=C/C(=O)NS(=O)(=O)c2ccccc2)cc1)c1ccc2[nH]ncc2c1)c1ccc(F)cc1Cl` [Compound 428, (E)-3-(4-((E)-2-(2-Chloro-4-fluorophenyl)-1-(1H-indazol-5-yl)but-1-en-1-yl)phenyl)-N-(phenylsulfonyl)acrylamide]: in the test with MCF-7 cells, the “MCF7 Viability Assay Max Response” value was “++ (++ = a single % value ≧ 40%)” and the 50% inhibitory concentration (IC50) was ≤ 100 nM. On ER-α in MCF-7 cells, the Emax was ≥ 40% and the DC50 is ≤ 100 nM.
Regarding `CC/C(=C(/c1ccc(/C=C/C(=O)NS(=O)(=O)Cc2ccccc2)cc1)c1ccc2[nH]ncc2c1)c1ccc(F)cc1Cl` [Compound 429, (E)-N-(Benzylsulfonyl)-3-(4-((E)-2-(2-chloro-4-fluorophenyl)-1-(1H-indazol-5-yl)but-1-en-1-yl)phenyl)acrylamide], in the test with MCF-7 cells, the “MCF7 Viability Assay Max Response” value is listed as “++ (++ = a single % value ≧ 40%)” and the IC50 was ≤ 100 nM. In addition, on ER-α in MCF-7 cells, the Emax was ≥ 40% and the DC50 was ≤ 100 nM.
For `CC/C(=C(/c1ccc(/C=C/C(=O)Nc2nccs2)cc1)c1ccc2[nH]ncc2c1)c1ccccc1` [Compound 430, (E)-3-(4-((E)-1-(1H-Indazol-5-yl)-2-phenylbut-1-en-1-yl)phenyl)-N-(thiazol-2-yl)acrylamide], in the test on MCF-7 cells, the “MCF7 Viability Assay Max Response” value was “++ (++ = a single % value ≧ 40%)” and the IC50 is ≤ 100 nM. At ER-α in MCF-7 cells, the Emax is ≥ 40% and the DC50 is ≤ 100 nM.
With `CC/C(=C(/c1ccc(/C=C/C(=O)NC2CCCC2)cc1)c1ccc2[nH]ncc2c1)c1ccccc1` [Compound 431, (E)-3-(4-((E)-1-(1H-Indazol-5-yl)-2-phenylbut-1-en-1-yl)phenyl)-N-cyclopentylacrylamide], in the test on MCF-7 cells, the “MCF7 Viability Assay Max Response” value was “++ (++ = a single % value ≧ 40%)” and the IC50 is ≤ 100 nM. On ER-α in MCF-7 cells, the Emax is ≥ 40% and the DC50 was ≤ 100 nM.
Regarding `CC/C(=C(/c1ccc(/C=C/C(=O)NS(=O)(=O)c2ccccn2)cc1)c1ccc2[nH]ncc2c1)c1ccc(F)cc1Cl` [Compound 432, (E)-3-(4-((E)-2-(2-Chloro-4-fluorophenyl)-1-(1H-indazol-5-yl)but-1-en-1-yl)phenyl)-N-(pyridin-2-ylsulfonyl)acrylamide], in the test with MCF-7 cells, the “MCF7 Viability Assay Max Response” value was “++ (++ = a single % value ≧ 40%)” and the IC50 is ≤ 100 nM. Further, on ER-α in MCF-7 cells, the Emax was ≥ 40% and the DC50 is ≤ 100 nM.
For `CC/C(=C(/c1ccc(/C=C/C(=O)NS(=O)(=O)c2cccnc2)cc1)c1ccc2[nH]ncc2c1)c1ccc(F)cc1Cl` [Compound 433, (E)-3-(4-((E)-2-(2-Chloro-4-fluorophenyl)-1-(1H-indazol-5-yl)but-1-en-1-yl)phenyl)-N-(pyridin-3-ylsulfonyl)acrylamide], in the test with MCF-7 cells, the “MCF7 Viability Assay Max Response” value was “++ (++ = a single % value ≧ 40%)” and the IC50 was ≤ 100 nM. Moreover, at ER-α in MCF-7 cells, the Emax was ≥ 40% and the DC50 was ≤ 100 nM.
In the case of `CC/C(=C(/c1ccc(/C=C/C(=O)NS(=O)(=O)c2ccncc2)cc1)c1ccc2[nH]ncc2c1)c1ccc(F)cc1Cl` [Compound 434, (E)-3-(4-((E)-2-(2-Chloro-4-fluorophenyl)-1-(1H-indazol-5-yl)but-1-en-1-yl)phenyl)-N-(pyridin-4-ylsulfonyl)acrylamide], in the test on MCF-7 cells, the “MCF7 Viability Assay Max Response” value is listed as “++ (++ = a single % value ≧ 40%)” and the IC50 was ≤ 100 nM. At ER-α in MCF-7 cells, the Emax is ≥ 40% and the DC50 was ≤ 100 nM.
Consider `CC/C(=C(/c1ccc(/C=C/c2noc(=O)[nH]2)cc1)c1ccc2[nH]ncc2c1)c1ccccc1` [Compound 435, 3-((E)-4-((E)-1-(1H-Indazol-5-yl)-2-phenylbut-1-en-1-yl)styryl)-1,2,4-oxadiazol-5(4H)-one], for which, in the test with MCF-7 cells, the “MCF7 Viability Assay Max Response” value is “++ (++ = a single % value ≧ 40%)” and the half-maximal inhibitory concentration (IC50) is ≤ 100 nM. At ER-α in MCF-7 cells, the Emax was ≥ 40% and the DC50 is ≤ 100 nM.
Turning to `CC/C(=C(/c1ccc(/C=C/c2noc(=O)[nH]2)cc1)c1ccc2scnc2c1)c1ccc(F)cc1Cl` [Compound 436, 3-((E)-4-((E)-1-(Benzo[d]thiazol-5-yl)-2-(2-chloro-4-fluorophenyl)but-1-en-1-yl)styryl)-1,2,4-oxadiazol-5(4H)-one], in the test with MCF-7 cells, the “MCF7 Viability Assay Max Response” value is “++ (++ = a single % value ≧ 40%)” and the IC50 was ≤ 100 nM. For the same compound, on ER-α in MCF-7 cells, the Emax is ≥ 40% and the DC50 is ≤ 100 nM.
For `CC/C(=C(/c1ccc(/C=C/c2noc(=O)[nH]2)cc1)c1ccc2[nH]ncc2c1)c1ccc(F)cc1Cl` [Compound 437, 3-((E)-4-((E)-2-(2-Chloro-4-fluorophenyl)-1-(1H-indazol-5-yl)but-1-en-1-yl)styryl)-1,2,4-oxadiazol-5(4H)-one], in the test on MCF-7 cells, the “MCF7 Viability Assay Max Response” value is reported as “++ (++ = a single % value ≧ 40%)” and the IC50 was ≤ 100 nM. Further, at ER-α in MCF-7 cells, the Emax was ≥ 40% and the DC50 was ≤ 100 nM.
As to `CC/C(=C(/c1ccc(/C=C/c2nsc(=O)[nH]2)cc1)c1ccc2[nH]ncc2c1)c1ccccc1` [Compound 438, 3-((E)-4-((E)-1-(1H-Indazol-5-yl)-2-phenylbut-1-en-1-yl)styryl)-1,2,4-thiadiazol-5(4H)-one], in the test on MCF-7 cells, the “MCF7 Viability Assay Max Response” value is recorded as “++ (++ = a single % value ≧ 40%)” and the IC50 is ≤ 100 nM. Also, at ER-α in MCF-7 cells, the Emax was ≥ 40% and the DC50 was ≤ 100 nM.
As for `CC/C(=C(/c1ccc(/C=C/c2nsc(=O)[nH]2)cc1)c1ccc2[nH]ncc2c1)c1ccc(F)cc1Cl` [Compound 439, 3-((E)-4-((E)-2-(2-Chloro-4-fluorophenyl)-1-(1H-indazol-5-yl)but-1-en-1-yl)styryl)-1,2,4-thiadiazol-5(4H)-one], in the test on MCF-7 cells, the “MCF7 Viability Assay Max Response” value is reported as “++ (++ = a single % value ≧ 40%)” and the IC50 is ≤ 100 nM. Besides, at ER-α in MCF-7 cells, the Emax was ≥ 40% and the DC50 was ≤ 100 nM.
`CC/C(=C(/c1ccc(/C=C/c2noc(=S)[nH]2)cc1)c1ccc2[nH]ncc2c1)c1ccccc1` [Compound 440, 3-((E)-4-((E)-1-(1H-Indazol-5-yl)-2-phenylbut-1-en-1-yl)styryl)-1,2,4-oxadiazole-5(4H)-thione]: in the test on MCF-7 cells, the “MCF7 Viability Assay Max Response” value is “+ (+ = a single % value < 40%)” and the IC50 is ≤ 100 nM. Further, at ER-α in MCF-7 cells, the Emax was ≥ 40% and the DC50 was ≤ 100 nM.
